This is an account of results in patent publication US20090069443A1, “Sedative Effect-Imparting Agent And Sedative Perfume Composition Containing The Same” (Shiseido Co., Ltd., priority 2005, published 2009).

Entries after “also recorded” stand apart in the source; their conditions may differ.

For this assay, the system named is healthy adult females. The experiment in a line: CNV (contingent negative variation) brain wave measurement of sedative effect. The format is in vivo, human. The note with it: 1 mass % solution in ethanol, inhaled from cotton pad below the nose; three to six healthy adult females; FIG. 1. The text has this: Measured was fluctuation in the negative potential of the event-related potential, a type of brain wave, which is also called contingent negative variation (hereinafter, referred to as CNV). The fluctuation intensity of the earlier component of the CNV brain wave is reported to show a positive correlation with the level of consciousness such as attention or expectation, and thus, the CNV brain wave can be used for quantitative evaluation of the effect of a fragrance on the consciousness level (sedated/stimulated) (Torii S. et al., Contingent negative variation (CNV) and the psychological effects of odour. In Perfumery: The Psychology and Biology of Fragrance, Edited by Toller S. V. and Dodd G. H., pp. 107-120, Chapman and Hall, London (1998)).
In the present invention, electrodes were adhered to the […] (Cz) and the left ear (A1) of a subject, and the voltage between the electrodes was measured with an electroencephalograph. The subject was made to listen to a click sound via headphone and push a switch in hand in response to a light-emitting diode flashing few seconds after the click sound, and the CNV brain wave was determined during the operation. In the test with fragrance, a perfume composition was allowed to penetrate into a square cotton pad of approximately 0.5 0.5 cm in size; the cotton pad was placed below the nose; and the subject was allowed to inhale the fragrance together with normal breathing during the series of operations above. […] The CNV brain waves were measured 30 times with and without fragrance respectively, and the fragrance effect was evaluated by comparing the integrated values of the earlier component of the CNV brain wave 400 to 1,000 ms after the click.
o-dimethoxybenzene (o-DMB), m-dimethoxybenzene (m-DMB), and p-dimethoxybenzene (p-DMB) were dissolved respectively in ethanol, to give 1 mass % solutions, and the effect thereof on CNV was measured according to the test method as above. […]
Take `COc1cccc(OC)c1` [m-dimethoxybenzene]: the “sedative effect (effect on CNV)” value was “favorable effect that leads the subject to sedative direction; also recorded: particularly favorable sedative effect”.
Turning to `COc1ccccc1OC` [o-dimethoxybenzene], the “sedative effect (effect on CNV)” value is listed as “favorable effect that leads the subject to sedative direction; also recorded: particularly favorable sedative effect”.
For the molecule `COc1ccc(OC)cc1` [p-dimethoxybenzene], the “sedative effect (effect on CNV)” value is given as “favorable effect that leads the subject to sedative direction”.
